The text below walks through data of patent publication US20220098203A1 (priority 2018, published 2022).

Each structure is given as a SMILES string.

For the first assay, the target named is T1, MAT2A homodimer (Homo sapiens, UniProt P31153).
T1 construct: inferred from the Ni sepharose purification and imidazole elution; made in house; host or cells: SF9 insect cells, recombinant baculovirus (Bac to Bac, pFASTBAC1)
T1 sequence (P31153 whole entry): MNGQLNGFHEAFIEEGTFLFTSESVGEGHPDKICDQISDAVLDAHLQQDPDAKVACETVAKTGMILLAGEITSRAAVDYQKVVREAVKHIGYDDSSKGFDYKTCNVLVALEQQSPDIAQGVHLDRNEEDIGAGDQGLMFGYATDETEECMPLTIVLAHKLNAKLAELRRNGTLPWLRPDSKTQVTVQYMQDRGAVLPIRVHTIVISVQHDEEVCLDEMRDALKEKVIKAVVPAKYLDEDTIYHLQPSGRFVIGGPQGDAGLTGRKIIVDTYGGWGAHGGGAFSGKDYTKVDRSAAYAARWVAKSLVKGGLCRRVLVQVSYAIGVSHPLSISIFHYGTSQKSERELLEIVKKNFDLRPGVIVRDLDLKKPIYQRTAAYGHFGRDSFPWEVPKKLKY
Nature of the assay: MAT2A biochemical assay (liberated phosphate, PiColorLock Gold). The following applies: Table 5a; MAT2A biochemical assay; read-out: Enzyme Inhibition. On the procedure:
Mat2A protein was expressed by recombinant baculovirus in SF9 infected cells using the Bac to Bac system cloned into the pFASTBAC1 vector (Invitrogen, Carlsbad, Calif.). Recombinant MAT2A was isolated from the cell lysate of 150 g of infected cells using HP Ni sepharose column chromatography. Recombinant MAT2A homodimer was eluted with 250 and 500 mM imidazole, and fractions containing MAT2A were identified by sodium dodecyl sulfate polyacrylamide gel electrophoresis and pooled.
Test compound was prepared in 100% dimethyl sulfoxide (DMSO) at 50× the desired final concentration. A 1 μL volume of compound dilution was added to 40 μL of enzyme dilution and the mixture was allowed to equilibrate for 60 minutes at 25° C. The enzymatic assay was initiated by the addition of 10 μL of substrate mix (500 μM ATP, pH 7.0, 400 μM L-methionine in 1× assay buffer), and the mixture was incubated for a further 60 minutes at 25° C. The reaction was halted and the liberated phosphate released by the enzyme in stoichiometric amounts by the production of S-adenosyl methionine (SAM) was measured using the PiColorLock Gold kit (Innova Biosciences, UK). Absolute product amounts were determined by comparison to a standard curve of potassium phosphate buffer, pH 8.0.
Take `COc1ccc(N2Cc3cnc(SC)nc3N(c3ccc(C)cc3)C2=O)cc1` [Example 244, 3-(4-methoxyphenyl)-7-(methylthio)-1-(p-tolyl)-3,4-dihydropyrimido[4,5-d]pyrimidin-2(1H)-one]: the IC50 fell in the range of 1000 to 10000 nM.
On the same count and under the same terms, the result for `COc1ccc(N2Cc3cnc(NCC(F)(F)F)nc3N(c3ccc(Cl)c(Cl)c3)C2=O)cc1` [Example 245, 1-(3,4-dichlorophenyl)-3-(4-methoxyphenyl)-7-((2,2,2-trifluoroethyl)amino)-3,4-dihydropyrimido[4,5-d]pyrimidin-2(1H)-one] reads 1000 to 10000 nM; that for `COc1ccc(N2C(=O)N(c3ccc4nn(C)cc4c3)Cc3cnc(NC4CCCCC4)nc32)cc1` [Example 248, 7-(cyclohexylamino)-1-(4-methoxyphenyl)-3-(2-methyl-2H-indazol-5-yl)-3,4-dihydropyrimido[4,5-d]pyrimidin-2(1H)-one], 1000 to 10000 nM.
Still for that read-out and setting: the same measure for `COc1ccc(N2Cc3cnc(NCC(F)(F)F)nc3N(c3ccc(O)cc3)C2=O)cc1` [Example 249, 1-(4-hydroxyphenyl)-3-(4-methoxyphenyl)-7-((2,2,2-trifluoroethyl)amino)-3,4-dihydropyrimido[4,5-d]pyrimidin-2(1H)-one]: 100 to 1000 nM.
Turning to `COc1ccc(N2Cc3cnc(NCC(F)(F)F)nc3N(c3ccc(C#N)cc3)C2=O)cc1` [Example 251, 4-(3-(4-methoxyphenyl)-2-oxo-7-((2,2,2-trifluoroethyl)amino)-3,4-dihydropyrimido[4,5-d]pyrimidin-1(2H)-yl)benzonitrile], the IC50 lay in the range of 1000 to 10000 nM.
As to `COc1ccc(N2Cc3cnc(NCC(F)(F)F)nc3N(c3ccc4c(c3)CCO4)C2=O)cc1` [Example 253, 1-(2,3-dihydrobenzofuran-5-yl)-3-(4-methoxyphenyl)-7-((2,2,2-trifluoroethyl)amino)-3,4-dihydropyrimido[4,5-d]pyrimidin2(1H)-one], the IC50 fell in the range of 100 to 1000 nM.
`COc1ccc(N2Cc3cnc(NCC(F)(F)F)nc3N(c3ccc4sccc4c3)C2=O)cc1` [Example 254, 1-(benzo[b]thiophen-5-yl)-3-(4-methoxyphenyl)-7-((2,2,2-trifluoroethyl)amino)-3,4-dihydropyrimido[4,5-d]pyrimidin2(1H)-one]: the IC50 lay in the range of 100 to 1000 nM.
Same read-out and setting: the same measure for `COc1ccc(N2Cc3cnc(NCC(F)(F)F)nc3N(c3ccc(OC(F)(F)F)cc3)C2=O)cc1` [Example 256, 3-(4-methoxyphenyl)-7-((2,2,2-trifluoroethyl)amino)-1-(4-(trifluoromethoxy)phenyl)-3,4-dihydropyrimido[4,5-d]pyrimidin-2(1H)-one]: 100 to 1000 nM.
For the molecule `COc1ccc(N2Cc3cnc(NCC(F)(F)F)nc3N(c3ccc(OC)cn3)C2=O)cc1` [Example 257, 3-(4-Methoxyphenyl)-1-(5-methoxypyridin-2-yl)-7-(2,2,2-trifluoroethylamino)-3,4-dihydropyrimido[4,5-d]pyrimidin-2(1H)-one], the IC50 was 100 to 1000 nM.
On to `COc1ccc(N2Cc3cnc(NCC(F)(F)F)nc3N([C@H]3CC[C@H](OC)CC3)C2=O)cc1` [Example 258], for which the IC50 fell in the range of 100 to 1000 nM.
On the same count and under the same terms, the same measure for `COc1ccc(N2Cc3cnc(NCC(F)(F)F)nc3N(c3ccc(OC(F)F)nc3)C2=O)cc1` [Example 259]: 100 to 1000 nM; for `COc1ccc(N2Cc3cnc(NCC(F)(F)F)nc3N(c3ccc4nccn4c3)C2=O)cc1` [Example 260]: 1000 to 10000 nM; for `COc1ccc(-n2c(=O)c3cnc(NCC(F)(F)F)nc3n(-c3ccc(O)cc3)c2=O)cc1` [Example 262, 1-(4-hydroxyphenyl)-3-(4-methoxyphenyl)-7-((2,2,2-trifluoroethyl)amino)pyrimido[4,5-d]pyrimidine-2,4(1H,3H)-dione]: 100 to 1000 nM.
The same measure, in the same setting: the result for `Cn1cc2cc(N3Cc4cnc(NCC(F)(F)F)nc4N(c4ccc(Cl)cc4)C3=O)ccc2n1` [Example 263, 1-(4-chlorophenyl)-3-(2-methyl-2H-indazol-5-yl)-7-((2,2,2-trifluoroethyl)amino)-3,4-dihydropyrimido[4,5-d]pyrimidin-2(1H)-one] reads under 100 nM.
Consider `COc1ccc(N2Cc3cnc(NCC4CC4)nc3N(c3ccc(O)cc3)C2=O)cc1` [Example 265], for which the IC50 fell in the range of 1000 to 10000 nM.
Regarding `COc1ccc(N2Cc3cnc(NCC4CC4)nc3N(c3ccncc3)C2=O)cc1` [Example 266], the IC50 was in the range of 1000 to 10000 nM.
The same measure, in the same setting: the result for `COc1ccc(N2Cc3cnc(NCC4CC4)nc3N(c3ccc(OC)cc3)C2=O)cc1` [Example 267] reads 100 to 1000 nM; that for `COc1ccc(N2Cc3cnc(NCC(F)(F)F)nc3N(c3ccc(C(N)=O)cc3)C2=O)cc1` [Example 276, 4-(3-(4-methoxyphenyl)-2-oxo-7-((2,2,2-trifluoroethyl)amino)-3,4-dihydropyrimido[4,5-d]pyrimidin-1(2H)-yl)benzamide], 100 to 1000 nM; that for `CNC(=O)c1ccc(N2C(=O)N(c3ccc(OC)cc3)Cc3cnc(NCC(F)(F)F)nc32)cc1` [Example 277, 4-(3-(4-methoxyphenyl)-2-oxo-7-((2,2,2-trifluoroethyl)amino)-3,4-dihydropyrimido[4,5-d]pyrimidin-1(2H)-yl)-N-methylbenzamide], 1000 to 10000 nM.
For the molecule `COc1ccc(N2Cc3cnc(NCC(F)(F)F)nc3N(c3ccc(C4(O)CC4)cc3)C2=O)cc1` [Example 278, 1-(4-(1-hydroxycyclopropyl)phenyl)-3-(4-methoxyphenyl)-7-((2,2,2-trifluoroethyl)amino)-3,4-dihydropyrimido[4,5-d]pyrimidin-2(1H)-one], the IC50 lay within 100 to 1000 nM.
As for `COc1ccc(N2Cc3cnc(NCC(F)(F)F)nc3N(c3ccc(-c4ccc[nH]c4=O)cc3)C2=O)cc1` [Example 279, 3-(4-methoxyphenyl)-1-(4-(2-oxo-1,2-dihydropyridin-3-yl)phenyl)-7-((2,2,2-trifluoroethyl)amino)-3,4-dihydropyrimido[4,5-d]pyrimidin-2(1H)-one], the IC50 fell in the range of 100 to 1000 nM.
The same measure, in the same setting: the result for `COc1ccc(N2Cc3cnc(NCC(F)(F)F)nc3N(c3ccc(-c4cc[nH]c4)cc3)C2=O)cc1` [Example 280, 1-(4-(1H-pyrrol-3-yl)phenyl)-3-(4-methoxyphenyl)-7-((2,2,2-trifluoroethyl)amino)-3,4-dihydropyrimido[4,5-d]pyrimidin-2(1H)-one] reads 100 to 1000 nM; that for `COc1ccc(N2Cc3cnc(NCC(F)(F)F)nc3N(c3ccc(C4CC4O)cc3)C2=O)cc1` (centres unmarked) [Example 281, 1-(4-(2-hydroxycyclopropyl)phenyl)-3-(4-methoxyphenyl)-7-((2,2,2-trifluoroethyl)amino)-3,4-dihydropyrimido[4,5-d]pyrimidin-2(1H)-one], 100 to 1000 nM.
The same measure, in the same setting: the same measure for `Cn1cc2cc(N3Cc4cc(Cl)c(OCC(F)F)cc4N(c4ccc(OC(F)F)cc4)C3=O)ccc2n1` [Example 284, 6-chloro-7-(2,2-difluoroethoxy)-1-(4-(difluoromethoxy)phenyl)-3-(2-methyl-2H-indazol-5-yl)-3,4-dihydroquinazolin-2(1H)-one]: 100 to 1000 nM.
With `[2H]C([2H])([2H])Oc1ccc(N2C(=O)N(c3ccc4nn(C)cc4c3)C(C)c3ccc(OCC(F)F)nc32)cc1` (centres unmarked) [Example 286, 7-(2,2-difluoroethoxy)-1-(4-(methoxy-d3)phenyl)-4-methyl-3-(2-methyl-2H-indazol-5-yl)-3,4-dihydropyrido[2,3-d]pyrimidin-2(1H)-one], the IC50 fell in the range of 100 to 1000 nM.
On the same count and under the same terms, the same measure for `CCOc1cc2c(nn1)CN(c1ccc3nn(C)cc3c1)C(=O)N2c1ccc(OC(F)F)cc1` [Example 292, 5-(4-(difluoromethoxy)phenyl)-3-ethoxy-7-(2-methyl-2H-indazol-5-yl)-7,8-dihydropyrimido[5,4-c]pyridazin-6(5H)-one]: 1000 to 10000 nM.
On the same count and under the same terms, the result for `Cn1cc2cc(N3Cc4nnc(NCC(F)(F)F)cc4N(c4ccc(OC(F)F)cc4)C3=O)ccc2n1` [Example 293] reads 100 to 1000 nM; that for `CCOc1cc2c(cn1)CN(c1ccc3nn(C)cc3c1)C(=O)N2c1ccc(Cl)cc1` [Example 418, 1-(4-chlorophenyl)-7-ethoxy-3-(2-methyl-2H-indazol-5-yl)-3,4-dihydropyrido[4,3-d]pyrimidin-2(1H)-one], 100 to 1000 nM.
On the same count and under the same terms, the result for `COC1CCC(N2C(=O)N(c3ccc4nn(C)cc4c3)Cc3ccc(OCC(F)F)nc32)CC1` (centres unmarked) [Example 427, 7-(2,2-difluoroethoxy)-1-(4-methoxycyclohexyl)-3-(2-methyl-2H-indazol-5-yl)-1H,2H,3H,4H-pyrido[2,3-d]pyrimidin-2-one] reads 1000 to 10000 nM; that for `Cc1ccc(N2C(=O)N(c3ccc4nn(C)cc4c3)Cc3cnc(NCC(F)(F)F)nc32)cn1` [Example 433, 3-(2-methyl-2H-indazol-5-yl)-1-(6-methylpyridin-3-yl)-7-((2,2,2-trifluoroethyl)amino)-3,4-dihydropyrimido[4,5-d]pyrimidin-2(1H)-one], under 100 nM.
Regarding `[2H]C([2H])([2H])Oc1ccc(N2C(=O)N(c3ccc4nc(C)n(C)c4c3)Cc3c(C)nc(NCC(F)(F)F)nc32)cc1` [Example 435, 3-(1,2-dimethyl-1H-benzo[d]imidazol-6-yl)-1-(4-(methoxy-d3)phenyl)-5-methyl-7-((2,2,2-trifluoroethyl)amino)-3,4-dihydropyrimido[4,5-d]pyrimidin-2(1H)-one], the IC50 is under 100 nM.

Still in this assay, the particulars now being: Table 5a; given as a bound, not a class symbol; read-out: Enzyme Inhibition.
For `CCOc1ccc(N2C(=O)N(c3ccc4nn(C)cc4c3)Cc3nnc(OCC)cc32)cc1` [Example 438], the IC50 is over 10000 nM.
